Where two headings read alike, the source gives them in different places.
Test system: HIV-1 (NL4-3 strain)
Test: Assay for inhibition of HIV replication (ViKinG; infected MT4-GFP cells)
Type: cell-based
Outline: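 MT4-GFP cells infected with NL4-3 at low MOI for 24 h, washed, then exposed to serially diluted compound (0.4% DMSO) in RPMI. GFP+ cells counted at 24 and 48 h; R0 = 48 h/24 h ratio, inhibition normalised to DMSO and triple-drug controls, IC50 from 4-parameter fit.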

[1] = Human immunodeficiency virus 1, NL43, MT4-GFP cells infected with HIV-1 NL4-3, 10% normal human serum (NHS), read-out: ViKinG IP (nM) with 10% NHS
[2] = Human immunodeficiency virus 1, NL43, MT4-GFP cells infected with HIV-1 NL4-3, 100% normal human serum (NHS), read-out: ViKinG IP (nM) with 100% NHS
[3] = Human immunodeficiency virus 1, NL43, MT4-GFP cells infected with HIV-1 NL4-3, 0% normal human serum (NHS), read-out: ViKinG IP (nM) with 0% NHS
[4] = MT4-GFP cells infected with HIV-1 NL4-3, 0% normal human serum (NHS), read-out: ViKinG IP (nM) with 0% NHS
[5] = MT4-GFP cells infected with HIV-1 NL4-3, 10% normal human serum (NHS), read-out: ViKinG IP (nM) with 10% NHS
[6] = MT4-GFP cells infected with HIV-1 NL4-3, 100% normal human serum (NHS), read-out: ViKinG IP (nM) with 100% NHS

Compound	IC50 [1] [nM]	IC50 [2] [nM]	IC50 [3] [nM]	IC50 [4] [nM]	IC50 [5] [nM]	other results
CCN1C(=O)c2c(O)c(=O)c(-c3nnc(Cc4ccc(F)cc4)s3)cn2N(C)C12CCC(CC(=O)N(C)C)C2 (stereo not shown) [Compound 99]	34.9	122				
CCOP(=O)(OCC)C1CCCC2(C1)N(CC)C(=O)c1c(O)c(=O)c(-c3nnc(Cc4ccc(F)cc4F)s3)cn1N2C (stereo not shown) [Compound 25]	40.5					
CCN1C(=O)c2c(O)c(=O)c(-c3nnc(Cc4ccc(F)cc4F)s3)cn2N(C)C12CCC(CO)CC2 (stereo not shown) [Compound 55]		279	6.46			
CN(C)C(=O)C1(C)CCC2(CC1)N(C)C(=O)c1c(O)c(=O)c(-c3nnc(Cc4ccc(F)cc4)s3)cn1N2C (stereo not shown) [Compound 147]	15.1	117				
CN1C(=O)c2c(O)c(=O)c(-c3nnc(Cc4ccc(F)cc4F)s3)cn2N(C)C12CCC(C(=O)N1CCC(F)(F)C1)CC2 (stereo not shown) [Compound 118]				14.4	8.43	
CCN1C(=O)c2c(O)c(=O)c(-c3nnc(Cc4ccc(F)cc4F)s3)cn2N(C)C12CCC(O)CC2 (stereo not shown) [Compound 51]		204		8.5		
CN1C(=O)c2c(O)c(=O)c(-c3nnc(Cc4ccc(F)cc4F)s3)cn2N(C)C12CCC(C(=O)O)CC2 (stereo not shown) [Compound 89]				44.9	322	
CCN1C(=O)c2c(O)c(=O)c(-c3nnc(Cc4ccc(F)cc4F)s3)cn2N(C)C12CCC(C(=O)N(C)C)CC2 (stereo not shown) [Compound 100]		111	7.51		6.47	
CCN1C(=O)c2c(O)c(=O)c(-c3nnc(Cc4ccc(F)cc4F)s3)cn2N(C)C12CC[C@@H]1C[C@@H]12 (stereo partly shown) [Compound 39]	77.7		0.213			
CN1C(=O)c2c(O)c(=O)c(-c3nnc(Cc4ccc(F)cc4F)s3)cn2N(C)C12CCC(C(N)=O)CC2 (stereo not shown) [Compound 106]				186	812	
CN(C)C(=O)C1(C)CCC2(CC1)N(C)C(=O)c1c(O)c(=O)c(-c3nnc(Cc4ccc(F)cc4)s3)cn1N2C (stereo not shown) [Compound 148]					8.6	IC50 [6]: 119 nM
CCN1C(=O)c2c(O)c(=O)c(-c3nnc(Cc4ccc(F)cc4F)s3)cn2N(C)C12CC[C@@H](C(=O)OC)[C@H](C)C2 (stereo partly shown) [Compound 33]					29	
CN1C(=O)c2c(O)c(=O)c(-c3nnc(Cc4ccc(F)cc4F)s3)cn2N(C)C12CCC(C(=O)NCC(F)(F)F)CC2 (stereo not shown) [Compound 112]				3.36	11.1	
CN1C2C(O)CCCN2C(=O)c2c(O)c(=O)c(-c3nnc(Cc4ccc(F)cc4F)s3)cn21 (stereo not shown) [Compound 165]				5.12		IC50 [6]: 54 nM
CCN1C(=O)c2c(O)c(=O)c(-c3nnc(Cc4ccc(F)cc4F)s3)cn2N(C)C12CCCC(=O)C2 (racemic) [Compound 43]	275		40.7			
CCN1C(=O)c2c(O)c(=O)c(-c3nnc(Cc4ccc(F)cc4F)s3)cn2N(C)C1CC(C)=O (racemic) [Compound 40]	374		2.53			
CCN1C(=O)c2c(O)c(=O)c(-c3nnc(Cc4ccc(F)cc4F)s3)cn2N(C)C12CCC(c1nc(C)no1)CC2 (stereo not shown) [Compound 47]				11.6		IC50 [6]: 186 nM
C[C@H]1n2cc(C(=O)NCc3ccc(F)cc3F)c(=O)c(O)c2C(=O)N(C)C12CC2 [Compound 175]		37.1	1.54			
CCN1C(=O)c2c(O)c(=O)c(-c3nnc(Cc4ccc(F)cc4)s3)cn2N(CCOC)C1C (stereo not shown) [Compound 169]	90	1510				
CN1C(=O)c2c(O)c(=O)c(-c3nnc(Cc4ccc(F)cc4)s3)cn2N(C)C12CCC(O)CC2 (stereo not shown) [Compound 13]				23.8	86.9	IC50 [6]: 862 nM
CN1n2cc(-c3nnc(Cc4ccc(F)cc4F)s3)c(=O)c(O)c2C(=O)NC12CC[C@H]1C[C@H]12 (mixture of isomers) [Compound 201]		575	3.82			
COCCN1C(=O)c2c(O)c(=O)c(-c3nnc(Cc4ccc(F)cc4F)s3)cn2N(C)C12CCC2 [Compound 173]		526	7			
CN1C(=O)c2c(O)c(=O)c(-c3nnc(Cc4ccc(F)cc4F)s3)cn2N(C)C12CCC(C(=O)N1CCCC1)CC2 (stereo not shown) [Compound 116]				3.94	15.2	
CC1=CCC2(CC1)N(C)C(=O)c1c(O)c(=O)c(-c3nnc(Cc4ccc(F)cc4F)s3)cn1N2C (racemic) [Compound 71]	49.5		16.1			
CN1C(=O)c2c(O)c(=O)c(-c3nnc(Cc4ccc(F)cc4F)s3)cn2N(C)C12C[C@H]1CC(O)C[C@H]1C2 (stereo partly shown) [Compound 77]	58		12.8			
CCN1C(=O)c2c(O)c(=O)c(-c3nnc(Cc4ccc(F)cc4F)s3)cn2N(C)C12CCC(C(=O)OC)C2 (stereo not shown) [Compound 19]	22.8	314				

From patent publication US9714243B2, “4-pyridinonetriazine derivatives as HIV integrase inhibitors” (Merck Sharp & Dohme Corp., priority 2012, dated 2017)
